Measured values from patent publication US12486269B2 (Aconcagua Bio, Inc., priority 2024, dated 2025).

Experiments:
[1] = molecular target: T1, COS-7/AMY3 (human calcitonin receptor (CTR) and RAMP3) (Homo sapiens, UniProt O60896+P30988); assay: Amylin Receptor cAMP Assay I; assay type: cell-based; settings: values marked *: Amylin Receptor cAMP Assay I; COS-7/AMY3 cells, cAMP Hi-range kit, 30 min; read-out: Amylin Receptor cAMP Stimulation Activity: EC50
T1 construct: expressed in transfected cells; host or cells: COS-7
Excerpt: Amylin Receptor cAMP Assay I
AMYRs are heterodimers of the class B calcitonin (CT) G-protein-coupled receptor (CTR) and receptor activity-modifying proteins (RAMPs). All three RAMPs can interact with the CTR and form AMY1, AMY2, AMY3 with RAMP1, RAMP2 and RAMP3, respectively. Like other class B1 GPCRs, the CT receptor family is canonically coupled to Gs-mediated cAMP production, and measurement of cAMP accumulation has been the primary assay used to determine peptide selectivity and potency.
To optimize functional activity directed toward Gαs coupling, COS-7 cells were stably transfected with human calcitonin receptor (CTR) and RAMP3, simultaneously. 100×concentration of compound working solutions were prepared (Agilent Technologies Bravo) with 4-fold serial dilution in 384-well Echo LDV plate (Labcyte, Cat #LP-0200). 100 nL/well 100×concentration of compound working solutions were moved to 384-well white low volume plate (Greiner, Cat #784075) using Labcyte ECHO550. […]
After incubation, the cAMP assay signal was generated using cAMP Hi-range Kit (Cisbio). […] The samples were then incubated at room temperature for 1 hour protected from light. the fluorescence was read at 665 and 615 nm with Reader PerkinElmer EnVision. % Activity=100%×(mean RLU of test sample−mean RLU of vehicle control)/(mean RLU of MAX control−mean RLU of vehicle control)) Amylin Receptor cAMP Assay II

[2] = molecular target: T2, human calcitonin receptor (CTR) (Homo sapiens, UniProt P30988); assay: Calcitonin Receptor (CTR) cAMP Assay; assay type: cell-based; settings: COS7-human CTR Clone #2 stable cell line, cAMP dynamic 2 kit, 30 min; read-out: Calcitonin Receptor cAMP Stimulation Activity: EC50
T2 construct: expressed in transfected cells; host or cells: COS-7 (COS7-human CTR Clone #2)
T2 sequence (P30988 25-474): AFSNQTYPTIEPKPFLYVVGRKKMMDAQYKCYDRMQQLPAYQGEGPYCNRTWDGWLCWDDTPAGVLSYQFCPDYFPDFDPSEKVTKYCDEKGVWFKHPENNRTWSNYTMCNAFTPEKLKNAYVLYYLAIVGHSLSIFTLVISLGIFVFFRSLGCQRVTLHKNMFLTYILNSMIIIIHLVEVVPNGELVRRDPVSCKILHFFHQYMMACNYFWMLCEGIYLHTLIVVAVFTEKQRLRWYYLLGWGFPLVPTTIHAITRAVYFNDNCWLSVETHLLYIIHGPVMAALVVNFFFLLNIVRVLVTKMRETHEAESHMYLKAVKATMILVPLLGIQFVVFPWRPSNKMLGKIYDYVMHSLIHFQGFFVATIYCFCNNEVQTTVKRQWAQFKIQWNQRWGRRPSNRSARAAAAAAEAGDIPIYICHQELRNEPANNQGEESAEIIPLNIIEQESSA
Method in brief: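 COS-7 cells stably expressing human CTR (2000 cells/well) were incubated 30 min at 37 °C with 4-fold serially diluted compound in HBSS/20 mM HEPES/0.5 mM IBMX/0.1% casein. cAMP was detected by HTRF (665/615 nm) after 1 h at RT. % activity was normalised to vehicle and positive controls.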

T1 sequence (O60896 24-148, one chain of several): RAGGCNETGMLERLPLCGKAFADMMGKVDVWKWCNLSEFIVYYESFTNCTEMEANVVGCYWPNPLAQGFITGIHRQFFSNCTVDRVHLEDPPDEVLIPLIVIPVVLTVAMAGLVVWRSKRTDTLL

COc1cccc2c1CC[C@H]2NC(=O)c1ccc(-c2c3c(nc(CCc4ccc(F)cc4)c2-c2noc(=O)[nH]2)[C@@H]2CCCN2C3=O)s1 [Compound 108, 5-((S)-2-(4-fluorophenethyl)-5-oxo-3-(5-oxo-4,5-dihydro-1,2,4-oxadiazol-3-yl)-7,8,9,9a-tetrahydro-5H-pyrido[2,3-a]pyrrolizin-4-yl)-N—((R)-4-methoxy-2,3-dihydro-1H-inden-1-yl)thiophene-2-carboxamide]
EC50 [1]: 121 nM
EC50 [2]: 2.42 nM
